In patent US7807445B2, “Antibiotic compound” (Merck Sharp and Dohme de Espana, S.A., priority 2004, dated 2010):
Converted amounts (≈) assume the structure as drawn.

Assays:
[1] = Microbroth dilution assay (MIC), antibacterial activity; type: cell-based; conditions: range over all test strains (S. aureus, S. pneumoniae, E. faecalis, E. faecium, B. subtilis, E. coli and resistant strains); 35° C., read to no growth after 22-24 hours; NCCLS guidelines; read-out: minimum inhibitory concentration (MIC)
Experimental: (§1) The protocols used to determine the antibacterial activity of Compound I are described below.
(§2) • Cation-Adjusted Mueller Hinton Broth (MH; BBL) • 50% Lysed Horse Blood (LHB; BBL) (stored frozen) • RPMI 1640 (BioWhittaker) • Human Serum (Pel-Freez) • RPMI 1640 (BioWhittaker) • Haemophilus Test Medium (HTM, Remel) • Trypticase Soy Broth (TSB, 5 mL/tube; BBL) • 0.9% Sodium Chloride (Saline; Baxter) • Trypticase Soy+5% Sheep Blood Agar Plates (TSA; BBL) • Sabouraud Dextrose Agar Plates (BBL) • Chocolate Agar Plates (BBL) • 2× Skim Milk (Remel) • Microbank Beads (Kramer Scientific) • MIC 2000 Microtiter plate inoculator. • 2× Trypticase Soy Broth (TSB, BBL)+15% glycerol/50% horse serum. • 96-Well Microtiter plates, lids, inoculum trays (Dynex Laboratories) • 8-Channel Finn Multichannel pipettor, 0.5-10 μL volume Methods: Media Preparation
(§3) Cation-Adjusted Mueller Hinton Broth (BBL): Prepared according to manufacturer's instructions (22 gms dissolved in 1000 mL water; autoclaved 22 minutes). Stored refrigerated. Filter-sterilized before use using a Corning 0.45 Tm cellulose acetate filter.
(§4) Cation-Adjusted Mueller Hinton+2.5% Lysed Horse Blood: Aseptically add 5 mL 50% lysed horse blood to 100 mL Cation-Adjusted Mueller Hinton Broth. Filter-sterilize before use using a Corning 0.45 Tm cellulose acetate filter. […]

[2] = tested on: various strains of S. aureus, S. pneumoniae, E. faecalis, E. faecium, B. subtilis and E. coli, including MRSA, VRE, multidrug-resistant E. faecium …; test: as above; type: cell-based; conditions: various strains of S. aureus, S. pneumoniae, E. faecalis, E. faecium, B. subtilis and E. coli, including MRSA, VRE, multidrug-, macrolide- and linezolid-resistant species
Experimental: as §1, §2, §3, §4

MIC [1]: 0.5 to 32 µg/mL (≈ 1.18 to 75.2 µM)
Structure (SMILES): C=C1C[C@@]23C=CC(=O)[C@@](C)(CCC(=O)Nc4c(O)ccc(C(=O)O)c4O)C2C[C@@H]1CC3 (stereo in doubt) [Compound I]
antibacterial activity [2]: demonstrates antibacterial activity
